Values joined by “and” are separate entries in the source; they are usually repeats but may differ in a detail not shown here. Equal values may be shown once. One block for each compound: values may come before it.
Test system: 967376-340-R-J2-PDC multicell spheroid viability
Assay: Anticancer human tumor 967376-340-R-J2-PDC patient-derived colon adenocarcinoma cell line growth inhibition [PI3K]
Conditions: for viability, T/C: stronger effect = lower value
How it was run: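 Tumor cells grown as multi-cell spheroids with HUVEC endothelial cells and MSC fibroblast-like stroma were treated with targeted agents combined with inavolisib, alpelisib, duvelisib or copanlisib. Doses fell in half-log steps from near clinical Cmax, else from 10 microM. Viability was measured.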

[1] = curve of first compound, second compound 0.0316 µM
[2] = curve of first compound, second compound 0.1 µM
[3] = curve of first compound, second compound 0.316 µM
[4] = curve of first compound, second compound 1 µM
[5] = second compound 0.0316 µM, first compound 0.0316 µM
[6] = second compound 0.0316 µM, first compound 0.1 µM
[7] = second compound 0.0316 µM, first compound 0.316 µM
[8] = second compound 0.0316 µM, first compound 1 µM
[9] = second compound 0.0316 µM, first compound 3.16 µM
[10] = second compound 0.0316 µM, first compound 10 µM
[11] = second compound 0.1 µM, first compound 0.0316 µM
[12] = second compound 0.1 µM, first compound 0.1 µM
[13] = second compound 0.1 µM, first compound 0.316 µM
[14] = second compound 0.1 µM, first compound 1 µM
[15] = second compound 0.1 µM, first compound 3.16 µM
[16] = second compound 0.1 µM, first compound 10 µM
[17] = second compound 0.316 µM, first compound 0.0316 µM
[18] = second compound 0.316 µM, first compound 0.1 µM
[19] = second compound 0.316 µM, first compound 0.316 µM
[20] = second compound 0.316 µM, first compound 1 µM
[21] = second compound 0.316 µM, first compound 3.16 µM
[22] = second compound 0.316 µM, first compound 10 µM
[23] = second compound 1 µM, first compound 0.0316 µM
[24] = second compound 1 µM, first compound 0.1 µM
[25] = second compound 1 µM, first compound 0.316 µM
[26] = second compound 1 µM, first compound 1 µM
[27] = second compound 1 µM, first compound 3.16 µM
[28] = second compound 1 µM, first compound 10 µM
[29] = curve of first compound, second compound 0.00316 µM
[30] = curve of first compound, second compound 0.01 µM
[31] = second compound 0.00316 µM, first compound 0.0316 µM
[32] = second compound 0.00316 µM, first compound 0.1 µM
[33] = second compound 0.00316 µM, first compound 0.316 µM
[34] = second compound 0.00316 µM, first compound 1 µM
[35] = second compound 0.00316 µM, first compound 3.16 µM
[36] = second compound 0.00316 µM, first compound 10 µM
[37] = second compound 0.01 µM, first compound 0.0316 µM
[38] = second compound 0.01 µM, first compound 0.1 µM
[39] = second compound 0.01 µM, first compound 0.316 µM
[40] = second compound 0.01 µM, first compound 1 µM
[41] = second compound 0.01 µM, first compound 3.16 µM
[42] = second compound 0.01 µM, first compound 10 µM
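Also: spheroids exposed to agents for 7 days before read-out.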
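For viability, T/C in this document: luminescence used as surrogate of cell viability.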

Structure (SMILES): C=CC(=O)N1CCN(c2nc(=O)n(-c3c(C)ccnc3C(C)C)c3nc(-c4c(O)cccc4F)c(F)cc23)C(C)C1 (stereo not given)
- viability, T/C (compound 0.0316 µM): 106% and 98.1% and 85.1%
- viability, T/C (compound 0.1 µM): 87.2% and 75.8% and 115%
- viability, T/C (compound 0.316 µM): 106% and 107% and 86.6%
- viability, T/C (compound 1 µM): 97.1% and 124% and 96.3%
- viability, T/C (compound 3.16 µM): 119% and 123% and 101%
- viability, T/C (compound 10 µM): 112% and 107% and 119%
- IC50 (curve of compound): > 10 µM

Structure (SMILES): C=CC(=O)N1CCN(c2nc(=O)n(-c3c(C)ccnc3C(C)C)c3nc(-c4c(O)cccc4F)c(F)cc23)C(C)C1 (stereo not given) + COc1c(OCCCN2CCOCC2)ccc2c3n(c(=NC(=O)c4cnc(N)nc4)nc12)CCN3
- IC50 [29]: > 10 µM
- IC50 [30]: > 10 µM
- IC50 [1]: > 10 µM
- IC50 [2]: > 10 µM
- IC50 [3]: < 0.0316 µM
- IC50 [4]: < 0.0316 µM
- viability, T/C [31]: 112%
- viability, T/C [32]: 101%
- viability, T/C [33]: 91.7%
- viability, T/C [34]: 92.6%
- viability, T/C [35]: 111%
- viability, T/C [36]: 70.2%
- viability, T/C [37]: 95.5%
- viability, T/C [38]: 97.8%
- viability, T/C [39]: 90.8%
- viability, T/C [40]: 80.4%
- viability, T/C [41]: 84.8%
- viability, T/C [42]: 73.5%
- viability, T/C [5]: 74%
- viability, T/C [6]: 81.7%
- viability, T/C [7]: 73.1%
- viability, T/C [8]: 70.3%
- viability, T/C [9]: 85.6%
- viability, T/C [10]: 79.8%
- viability, T/C [11]: 55.3%
- viability, T/C [12]: 78.6%
- viability, T/C [13]: 63.9%
- viability, T/C [14]: 66%
- viability, T/C [15]: 84%
- viability, T/C [16]: 52%
- viability, T/C [17]: 50.5%
- viability, T/C [18]: 41%
- viability, T/C [19]: 41.3%
- viability, T/C [20]: 40.3%
- viability, T/C [21]: 50.1%
- viability, T/C [22]: 42.6%
- viability, T/C [23]: 33.6%
- viability, T/C [24]: 36%
- viability, T/C [25]: 29.6%
- viability, T/C [26]: 34.5%
- viability, T/C [27]: 37.9%
- viability, T/C [28]: 39.5%

Structure (SMILES): CCN1CCN(Cc2ccc(Nc3ncc(F)c(-c4cc(F)c5nc(C)n(C(C)C)c5c4)n3)nc2)CC1 + COc1c(OCCCN2CCOCC2)ccc2c3n(c(=NC(=O)c4cnc(N)nc4)nc12)CCN3
- IC50 [29]: > 1 µM
- IC50 [30]: > 1 µM
- IC50 [1]: 0.769 µM
- IC50 [2]: 0.025 µM
- IC50 [3]: < 0.00316 µM
- IC50 [4]: < 0.00316 µM
- viability, T/C (second compound 0.00316 µM, first compound 0.00316 µM): 85.1%
- viability, T/C (second compound 0.00316 µM, first compound 0.01 µM): 95.7%
- viability, T/C [31]: 87.6%
- viability, T/C [32]: 83.5%
- viability, T/C [33]: 79.7%
- viability, T/C [34]: 70.8%
- viability, T/C (second compound 0.01 µM, first compound 0.00316 µM): 85.3%
- viability, T/C (second compound 0.01 µM, first compound 0.01 µM): 77.9%
- viability, T/C [37]: 62.4%
- viability, T/C [38]: 71.1%
- viability, T/C [39]: 73.2%
- viability, T/C [40]: 60.6%
- viability, T/C (second compound 0.0316 µM, first compound 0.00316 µM): 68.6%
- viability, T/C (second compound 0.0316 µM, first compound 0.01 µM): 68.4%
- viability, T/C [5]: 71.4%
- viability, T/C [6]: 52.3%
- viability, T/C [7]: 63.6%
- viability, T/C [8]: 46.5%
- viability, T/C (second compound 0.1 µM, first compound 0.00316 µM): 66%
- viability, T/C (second compound 0.1 µM, first compound 0.01 µM): 57.6%
- viability, T/C [11]: 48.2%
- viability, T/C [12]: 40.1%
- viability, T/C [13]: 39.2%
- viability, T/C [14]: 34.9%
- viability, T/C (second compound 0.316 µM, first compound 0.00316 µM): 53.2%
- viability, T/C (second compound 0.316 µM, first compound 0.01 µM): 34.8%
- viability, T/C [17]: 43.4%
- viability, T/C [18]: 43.3%
- viability, T/C [19]: 42.4%
- viability, T/C [20]: 29.6%
- viability, T/C (second compound 1 µM, first compound 0.00316 µM): 42.2%
- viability, T/C (second compound 1 µM, first compound 0.01 µM): 35.5%
- viability, T/C [23]: 38.4%
- viability, T/C [24]: 22.8%
- viability, T/C [25]: 28.4%
- viability, T/C [26]: 30.3%

Continued, in another order:

- IC50 [1]: > 10 µM
- IC50 [2]: > 10 µM
- IC50 [3]: > 10 µM
- IC50 [4]: > 10 µM
- IC50 (curve of first compound, second compound 3.16 µM): > 10 µM
- IC50 (curve of first compound, second compound 10 µM): > 10 µM
Structure (SMILES): CC(Cn1ccc(-c2ccc(C#N)c(Cl)c2)n1)NC(=O)c1cc(C(C)O)[nH]n1 (stereo not given) + Cc1nc(NC(=O)N2CCCC2C(N)=O)sc1-c1ccnc(C(C)(C)C(F)(F)F)c1
- viability, T/C [5]: 90.6%
- viability, T/C [6]: 118%
- viability, T/C [7]: 104%
- viability, T/C [8]: 93.9%
- viability, T/C [9]: 109%
- viability, T/C [10]: 102%
- viability, T/C [11]: 95.1%
- viability, T/C [12]: 103%
- viability, T/C [13]: 91.6%
- viability, T/C [14]: 100%
- viability, T/C [15]: 92.9%
- viability, T/C [16]: 119%
- viability, T/C [17]: 69.3%
- viability, T/C [18]: 94.3%
- viability, T/C [19]: 95%
- viability, T/C [20]: 92.7%
- viability, T/C [21]: 102%
- viability, T/C [22]: 73.8%
- viability, T/C [23]: 58%
- viability, T/C [24]: 66.8%
- viability, T/C [25]: 75.2%
- viability, T/C [26]: 72.5%
- viability, T/C [27]: 83.5%
- viability, T/C [28]: 65.7%
- viability, T/C (second compound 3.16 µM, first compound 0.0316 µM): 54.4%
- viability, T/C (second compound 3.16 µM, first compound 0.1 µM): 62.3%
- viability, T/C (second compound 3.16 µM, first compound 0.316 µM): 61.5%
- viability, T/C (second compound 3.16 µM, first compound 1 µM): 52.5%
- viability, T/C (second compound 3.16 µM, first compound 3.16 µM): 62.9%
- viability, T/C (second compound 3.16 µM, first compound 10 µM): 73.7%
- viability, T/C (second compound 10 µM, first compound 0.0316 µM): 57.3%
- viability, T/C (second compound 10 µM, first compound 0.1 µM): 58.4%
- viability, T/C (second compound 10 µM, first compound 0.316 µM): 43.3%
- viability, T/C (second compound 10 µM, first compound 1 µM): 60.9%
- viability, T/C (second compound 10 µM, first compound 3.16 µM): 72.1%
- viability, T/C (second compound 10 µM, first compound 10 µM): 48.2%

- IC50 [29]: 6.69 µM
- IC50 [30]: > 10 µM
- IC50 [1]: 6.64 µM
- IC50 [2]: 2.27 µM
- IC50 [3]: 3.65 µM
- IC50 [4]: 0.277 µM
Structure (SMILES): CC1(C)CCC(Nc2ncc(C(F)(F)F)c(-c3c[nH]c4c(P(C)(C)=O)c(C#N)ccc34)n2)CN1 (stereo not given) + CC(Nc1ccc2c(c1)OCCn1cc(N3C(=O)OCC3C(F)F)nc1-2)C(N)=O
- viability, T/C [31]: 92.7%
- viability, T/C [32]: 69.1%
- viability, T/C [33]: 68%
- viability, T/C [34]: 64.7%
- viability, T/C [35]: 57.6%
- viability, T/C [36]: 44.3%
- viability, T/C [37]: 79%
- viability, T/C [38]: 88.1%
- viability, T/C [39]: 64.8%
- viability, T/C [40]: 53.2%
- viability, T/C [41]: 59.6%
- viability, T/C [42]: 49%
- viability, T/C [5]: 58.4%
- viability, T/C [6]: 76.8%
- viability, T/C [7]: 63.3%
- viability, T/C [8]: 66.2%
- viability, T/C [9]: 54.1%
- viability, T/C [10]: 46.7%
- viability, T/C [11]: 58.5%
- viability, T/C [12]: 74.1%
- viability, T/C [13]: 69.7%
- viability, T/C [14]: 54%
- viability, T/C [15]: 48.1%
- viability, T/C [16]: 25.6%
- viability, T/C [17]: 56.3%
- viability, T/C [18]: 67.3%
- viability, T/C [19]: 56.9%
- viability, T/C [20]: 52.9%
- viability, T/C [21]: 54.9%
- viability, T/C [22]: 24.8%
- viability, T/C [23]: 53.6%
- viability, T/C [24]: 53.4%
- viability, T/C [25]: 43.5%
- viability, T/C [26]: 50.7%
- viability, T/C [27]: 36.1%
- viability, T/C [28]: 24.6%
